Test results as given in patent publication US20160263109A1, “P13K INHIBITOR FOR TREATMENT OF RESPIRATORY DISEASE” (GLAXOSMITHKLINE INTELLECTUAL PROPERTY DEVELOPMENT LIMITED, priority 2013, published 2016).
Counter-ions that a name gives are not always drawn.

Key:
[1] = test system: S. pneumoniae strain TIGR4; test: Streptococcus pneumoniae infection in mice, survival by defined mortality-endpoint; assay type: in vivo; conditions: C57BL/6 mice, 0.2 mg/kg intranasal twice daily for eleven days, infected intranasally with 1×10^7 CFU S. pneumoniae TIGR4; n=60; Mantel-Cox **p<0.005
Protocol: (§1) Germ-free C57BL/6 male and female mice aged 10-12 weeks were intranasally administered with 0.2% Tween-80/saline vehicle or 0.2 mg/kg micronized 6-(1H-indol-4-yl)-4-(5-{[4-(1-methylethyl)-1-piperazinyl]methyl}-1,3-oxazol-2-yl)-1H-indazole hydrochloride in the same vehicle. Compound dosing was carried out twice daily for eleven days under anaesthesia using 3% isoflurane for induction and 2% isoflurane for maintenance. At the start of day two, and one hour after administering 6-(1H-indol-4-yl)-4-(5-{[4-(1-methylethyl)-1-piperazinyl]methyl}-1,3-oxazol-2-yl)-1H-indazole hydrochloride or vehicle, mice were anaesthetized with isoflurane as above and infected intranasally with 1×10^7 CFU of S. pneumoniae strain TIGR4. S. Pneumoniae was obtained and prepared as described previously (see, for example, Infect. Immun. December 2011; 79(12): 4965-4976) and given in an inoculum of 50 μl PBS per mouse. Mice were monitored three times daily and assessed using a defined mortality-endpoint, where mice displaying three or more of the limiting clinical signs stated in Home Office Project Licence PPL 70/7661 were culled.

lung gene expression = test: Affymetrix GeneChip lung gene expression in S. Pneumoniae-infected mice; assay type: in vivo; conditions: lungs of S. Pneumoniae-infected mice at various timepoints after infection; genes with minimum 1.5 fold-change, p<0.05; n=6
Protocol: as §1
Each band corresponds to a single probe and intensity signifies fold change, as indicated in the legend.

## CC(C)N1CCN(Cc2cnc(-c3cc(-c4cccc5[nH]ccc45)cc4[nH]ncc34)o2)CC1 [6-(1H-indol-4-yl)-4-(5-{[4-(1-methylethyl)-1-piperazinyl]methyl}-1,3-oxazol-2-yl)-1H-indazole hydrochloride]
[1]
  defined mortality-endpoint (percentage survival) compared to vehicle controls: reduced a defined mortality-endpoint
Lung gene expression
  lung gene expression compared to vehicle controls: altered lung gene expression
